Assay results from PMC4109680, “Identification and Preclinical Pharmacology of the γ-Secretase Modulator BMS-869780” (International Journal of Alzheimer's Disease, 2014).
Where two headings read alike, the source gives them in different places.

Assays:
[1] = Triple transgenic (3xTg) mouse time course PK/PD, oral dose, indirect response model; format: in vivo; details: female, 3xTg (triple transgenic), plasma
Protocol: (§1) Figure 8 Analysis of the PK/PD relationship for BMS-869780 in rats and mice. Rats were dosed orally with BMS-869780 at 10 mg/kg, and triple transgenic mice were orally dosed at 30 mg/kg and 100 mg/kg. Additional groups of rats and mice were dosed with vehicle alone. Brain and plasma were harvested at 3, 5, 8, 16, and 24 hours after dosing for determination of brain Aβ1-42 and plasma BMS-869780 concentration. Group sizes were 5 rats or 4 mice. Whiskers represent standard error. […] The data were fit to a one-compartment PK model and the predicted plasma BMS-869780 concentrations are shown for mouse (solid lines) and rat (broken line). […] The data were fitted using the indirect pharmacodynamic response model and predicted values are shown (solid lines). (c) Brain Aβ1-42 levels were determined for the rats dosed with BMS-869780 at 10 mg/kg (▼) or vehicle alone (●). The data were fitted using the indirect pharmacodynamic response model and predicted values are shown (dashed line). (d) Brain Aβ1-40 levels determined in the same rats as illustrated in (c).
(§2) All experimental procedures with animals followed National Institutes of Health guidelines and were authorized by and in compliance with policies of the Bristol-Myers Squibb Animal Use and Care Committee. Mice and rats were housed with a 6:00 AM to 6:00 PM light/dark cycle and allowed free access to food and water. For 3xTg mice, BMS-869780 was dosed in three-month-old females by oral gavage at 6 mL/kg in vehicle consisting of 84% polyethylene glycol average molecular weight of 400 (PEG-400), 15% EtOH, and 1% Tween-80 (w/w/w). The compound was dissolved in EtOH and then diluted with PEG-400 and Tween, after which the vial was sealed, vortexed, and sonicated at 56°C for 1 hour. Animals were euthanized by asphyxiation in CO2. Blood was collected by cardiac puncture and placed into ethylene-diaminetetraacetic acid microtainer tubes for the preparation of plasma. The cerebellum was collected for the determination of compound concentration, and the remaining brain was separated into left and right halves before freezing in liquid nitrogen. For the rat time course study, 8- to 12-week-old female Sprague-Dawley rats were obtained from Charles River Laboratories (Wilmington, MA), BMS-869780 was dosed orally at 4 mL/kg, and brain and plasma samples were collected as described for the 3xTg mice. For the four day repeat dose rat study, BMS-869780 was given by oral gavage in vehicle consisting of PEG-400, PEG-200, D-α-tocopheryl polyethylene glycol succinate, Solutol HS 15, in the ratio 80 : 10 : 5 : 5 (w/w/w/w). Methods for the pharmacokinetics studies in rat, dog, and monkey are described below.
(§3) The data generated in the mouse and rat time course experiments were analyzed sequentially by nonlinear regression (WinNonlin Pharsight Corporation, Mountain View, CA). The pharmacokinetic data were best described by a 1-compartment linear model with first-order absorption and elimination. Subsequently, the pharmacodynamic parameters were estimated from the BMS-869780 plasma concentrations and the observed reductions of brain Aβ1-42 or Aβ1-40 by fitting to the equation for inhibition of synthesis. The goodness-of-fit was determined by visual inspection, Akaike Information Criterion, Schwartz Criterion, examination of the residuals and the coefficient of variation of the parameter estimates.

[2] = system: brain Aβ1-42; test: as above; format: in vivo; details: for IC50: po
Protocol: as §1, §2, §3

[3] = Prediction of human PK and dose by allometric scaling combined with rat PK/PD
Protocol: Interspecies allometric scaling adjusted for brain weight was used to predict human CLTp, while simple allometric scaling was used to predict Vss. Briefly, the Vss and brain weight adjusted CLTp values from nonclinical species were plotted against body weight on a log-log scale to yield estimates of Vss and CLTp × brain weight in humans. The estimated CLTp × brain weight for human was adjusted for the brain weight of humans to yield a predicted CLTp. […] Noncompartmental analysis was performed using WinNonlin software (version 5.0; Pharsight Corporation, Mountain View, CA). The k a for each species was obtained from the IV and PO (nanosuspensions) of rat, dog, and cynomolgus monkey by deconvolution of plasma concentration-time data using Kinetica (version 5.0; Seattle, WA). The bioavailability was estimated from the nanosuspensions from rat, dog, and cynomolgus monkeys. The average k a and F, along with the Vss and CLTp from allometric scaling, were incorporated into a two-compartment model to predict the human oral plasma concentration-time profiles.

[4] = Plasma exposure in rat 4-day oral dosing experiment; format: in vivo; details: for AUC(0-t): read-out: AUC (0–24 h); for concentration at 4 day: oral, read-out: Terminal concentration day 4
Protocol: as §2
As a preliminary evaluation of safety in vivo, male and female rats were given 10, 30, and 100 mg/kg BMS-869780 orally once daily for 4 days. Endpoints included brain Aβ1-42, as described above (Figures 7(d) and 7(e)), plasma PK on day 1 and day 3 (Table 4), and histopathology for duodenum, liver, and kidney.

[5] = Mouse 30 mg/kg PO solution (observed 0–24 hours)
[6] = Mouse 100 mg/kg PO solution (observed 0–24 hours)
[7] = Human 700 mg PO suspension (predicted steady state)
[8] = female, rat, plasma, po, 10 mg/kg, Female, Day 1
[9] = female, rat, plasma, po, 10 mg/kg, Female, Day 3
[10] = female, rat, plasma, po, 30 mg/kg, Female, Day 1
[11] = female, rat, plasma, po, 30 mg/kg, Female, Day 3
[12] = female, rat, plasma, po, 100 mg/kg, Female, Day 1
[13] = female, rat, plasma, po, 100 mg/kg, Female, Day 3
[14] = male, rat, plasma, po, 10 mg/kg, Male, Day 1
[15] = male, rat, plasma, po, 10 mg/kg, Male, Day 3
[16] = male, rat, plasma, po, 30 mg/kg, Male, Day 1
[17] = male, rat, plasma, po, 30 mg/kg, Male, Day 3
[18] = male, rat, plasma, po, 100 mg/kg, Male, Day 1
[19] = male, rat, plasma, po, 100 mg/kg, Male, Day 3

COc1cc(Nc2nc3n(n2)CCCC[C@H]3c2ccc(F)cc2)ccc1-n1cnc(Cl)c1 [BMS-869780] showed a k el ([1]; oral, mouse, 1-compartment PK model) of 7.78e-05 s⁻¹, an AUC(0-t) [1, 5] of 45.9 µM·h and an AUC(0-t) [1, 6] of 102 µM·h. For the same compound, the “Brain Aβ ABEC 24 hr Aβ1-42” value [2, 5] was 30.9%, the “Brain Aβ ABEC 24 hr Aβ1-42” value [2, 6] was 55.1% and the V/F ([2]; mouse) was 1.94 L/kg. For the same compound, the “Ka1 (30 mg/kg)” value ([2]; mouse, 30 mg/kg oral) was 0.11 h⁻¹, the “Ka2 (100 mg/kg)” value ([2]; mouse, 100 mg/kg oral) was 0.046 h⁻¹ and the “K in” value ([2]; mouse, calculated) was 72 %/h. The “K OUT” value ([2]; mouse, rate constant for degradation of Aβ) was 0.72 h⁻¹, the IC50 ([2]; mouse, PD model, read-out: IC50 (plasma concentration required for 50% inhibition of Aβ production)) was 3.98 µM and the IC50 ([2]; mouse, read-out: in vivo plasma IC50 for brain Aβ1-42) was 4 µM. For the same compound, the “Brain Aβ ABEC 24 hr Aβ1-42” value [3, 7] was 25%, the “Plasma AUC 0–24 hr” value [3, 7] was 17.8 µM·h and the Cmax ([3]; plasma, oral, Human 700 mg once daily (predicted steady state)) was 1.27 µM. For the same compound, the AUC(0-t) ([3]; plasma, Human 700 mg PO suspension (predicted steady state), read-out: Plasma AUC 0–24 hr) was 17.6 µM·h, the “Terminal concentration day 4” value ([4]; 100 mg/kg, Female) was 13.7 (±0.9) μM and the “AUC (0–24 h)” value ([4]; 100 mg/kg, Female, Day 3) was 316.4 (±77.0) μM·h. For the same compound, the “Terminal concentration day 4” value ([4]; 100 mg/kg, Male) was 9.2 (±3.2) μM, the “change of exposure on repeat dosing” value ([4]; day 1 versus day 3) was “no loss of exposure between day 1 and day 3” and the Cmax [4, 8] was 2.9 µM. For the same compound, the Tmax [4, 8] was 7 h, the AUC(0-t) [4, 8] was 41 µM·h and the Cmax [4, 9] was 2.6 µM. For the same compound, the Tmax [4, 9] was 5 h, the AUC(0-t) [4, 9] was 25 µM·h and the Cmax [4, 10] was 8.2 µM. It also gave a Tmax [4, 10] of 5 h, an AUC(0-t) [4, 10] of 152 µM·h and a Cmax [4, 11] of 14.4 µM. It also gave a Tmax [4, 11] of 3 h, an AUC(0-t) [4, 11] of 255 µM·h and a Cmax [4, 12] of 10.6 µM. For the same compound, the Tmax [4, 12] was 24 h, the AUC(0-t) [4, 12] was 206 µM·h and the Cmax [4, 13] was 15.5 µM. It also gave a Tmax [4, 13] of 4 h, an AUC(0-t) [4, 13] of 316 µM·h and an exposures achieved ([4]; highest dose of 100 mg/kg) of over 200 µM·h. The Cmax [4, 14] was 2 µM, the Tmax [4, 14] was 5 h and the AUC(0-t) [4, 14] was 20.2 µM·h. For the same compound, the Cmax [4, 15] was 1.9 µM, the Tmax [4, 15] was 5 h and the AUC(0-t) [4, 15] was 17.5 µM·h. The Cmax [4, 16] was 6.1 µM, the Tmax [4, 16] was 8 h and the AUC(0-t) [4, 16] was 95.2 µM·h. For the same compound, the Cmax [4, 17] was 10.4 µM, the Tmax [4, 17] was 3 h and the AUC(0-t) [4, 17] was 129 µM·h. For the same compound, the Cmax [4, 18] was 7.7 µM, the Tmax [4, 18] was 19 h and the AUC(0-t) [4, 18] was 168 µM·h. The Cmax [4, 19] was 13.2 µM, the Tmax [4, 19] was 7 h and the AUC(0-t) [4, 19] was 217 µM·h. For the same compound, the concentration at 4 day ([4]; rat, plasma, 10 mg/kg, Female) was 3 µM, the concentration at 4 day ([4]; rat, plasma, 10 mg/kg, Male) was 2.4 µM and the concentration at 4 day ([4]; rat, plasma, 30 mg/kg, Female) was 12 µM. It also gave a concentration at 4 day ([4]; rat, plasma, 30 mg/kg, Male) of 8.9 µM and an AUC ([4]; rat, plasma, po, four daily doses of 10 mg/kg) of 17.5 µM·h.
